# Laboratory results as given in patent US7723527B2 (Janssen Pharmaceutica NV, priority 2003, dated 2010).
# Biological target: T1, human histamine H4 receptor (Homo sapiens, UniProt Q9H3N8)
# T1 construct: expressed in transfected cells; host or cells: SK-N-MC cells or COS7 cells, transiently transfected; cell membranes used
# Assay: Binding assay on recombinant human histamine H4 receptor (3H-histamine displacement)
# Conditions: competition binding with 3H-histamine; membranes of SK-N-MC or COS7 cells expressing human H4 receptor; Cheng-Prusoff, KD 5 nM, ligand 5 nM
# Description: SK—N-MC cells or COS7 cells were transiently transfected with pH4R and grown in 150 cm^2 tissue culture dishes. Cells were washed with saline solution, scraped with a cell scraper and collected by centrifugation (1000 rpm, 5 min). Cell membranes were prepared by homogenization of the cell pellet in 20 mM Tris-HCl with a polytron tissue homogenizer for 10 s at high speed. Homogenate was centrifuged at 1000 rpm for 5 min at 4° C. The supernatant was then collected and centrifuged at 20,000×g for 25 min at 4° C. The final pellet was resuspended in 50 mM Tris-HCl. Cell membranes were incubated with ^3H-histamine (5-70 nM) in the presence or absence of excess histamine (10,000 nM). Incubation occurred at room temperature for 45 min. Membranes were harvested by rapid filtration over Whatman GF/C filters and washed 4 times with ice-cold 50 mM Tris HCl. Filters were then dried, mixed with scintillant and counted for radioactivity. SK—N-MC or COS7 cells expressing human histamine H4 receptor were used to measure the affinity of binding of other compounds and their ability to displace ^3H-ligand binding by incubating the above-described reaction in the presence of various concentrations of inhibitor or compound to be tested.
row,SMILES,Ki
1,"CN1CCN(CCCOc2ccc(-c3nc4cc(Cl)c(Cl)cc4[nH]3)cc2Cl)CC1 [Example 40, 5,6-Dichloro-2-{3-chloro-4-[3-(4-methyl-piperazin-1-yl)-propoxy]-phenyl}-1H-benzoimidazole]",74 nM
2,"Cc1cc2[nH]c(-c3ccc(OCCCN4CCN(C)CC4)c(C)c3)nc2cc1Cl [Example 41, 5-Chloro-6-methyl-2-{3-methyl-4-[3-(4-methyl-piperazin-1-yl)-propoxy]-phenyl}-1H-benzoimidazole]",78 nM
3,"CN1CCN(CCCOc2ccc(-c3nc4cc(C(F)(F)F)ccc4[nH]3)cc2Cl)CC1 [Example 44, 2-{3-Chloro-4-[3-(4-methyl-piperazin-1-yl)-propoxy]-phenyl}-5-trifluoromethyl-1H-benzoimidazole]",87 nM
4,"Cc1cc(-c2nc3cc(Cl)c(F)cc3[nH]2)ccc1OCCCN1CCN(C)CC1 [Example 45, 5-Chloro-6-fluoro-2-{3-methyl-4-[3-(4-methyl-piperazin-1-yl)-propoxy]-phenyl}-1H-benzoimidazole]",110 nM
5,"Cc1ccc2[nH]c(-c3ccc(OCCCN4CCN(C)CC4)c(C)c3)nc2c1 [Example 46, 5-Methyl-2-{3-methyl-4-[3-(4-methyl-piperazin-1-yl)-propoxy]-phenyl}-1H-benzoimidazole]",113 nM
6,"COc1cc(-c2nc3cc(Cl)c(F)cc3[nH]2)ccc1OCCCN1CCN(C)CC1 [Example 50, 5-Chloro-6-fluoro-2-{3-methoxy-4-[3-(4-methyl-piperazin-1-yl)-propoxy]-phenyl}-1H-benzoimidazole]",187 nM
7,"CN1CCN(CCCOc2c(Br)cc(-c3nc4cc(C(C)(C)C)ccc4[nH]3)cc2Br)CC1 [Example 52, 5-tert-Butyl-2-{3,5-dibromo-4-[3-(4-methyl-piperazin-1-yl)-propoxy]-phenyl}-1H-benzoimidazole]",641 nM

# Other lines, results leading:
row,Ki,SMILES
1,36 nM,"CN1CCN(CCCOc2ccc(-c3nc4cc(Cl)c(F)cc4[nH]3)c(Cl)c2)CC1 [Example 37, 5-Chloro-2-{2-chloro-4-[3-(4-methyl-piperazin-1-yl)-propoxy]-phenyl}-6-fluoro-1H-benzoimidazole]"
2,65 nM,"Cc1cc(-c2nc3cc(Cl)ccc3[nH]2)ccc1OCCCN1CCN(C)CC1 [Example 38, 5-Chloro-2-{3-methyl-4-[3-(4-methyl-piperazin-1-yl)-propoxy]-phenyl}-1H-benzoimidazole]"
3,66 nM,"Cc1ccc2[nH]c(-c3ccc(OCCCN4CCN(C)CC4)c(Cl)c3)nc2c1 [Example 39, 2-{3-Chloro-4-[3-(4-methyl-piperazin-1-yl)-propoxy]-phenyl}-5-methyl-1H-benzoimidazole]"
4,79 nM,"Cc1ccc2[nH]c(-c3ccc(OCCCN4CCN(C)CC4)cc3Cl)nc2c1 [Example 42, 2-{2-Chloro-4-[3-(4-methyl-piperazin-1-yl)-propoxy]-phenyl}-5-methyl-1H-benzoimidazole]"
5,82 nM,"CN1CCN(CCCOc2ccc(-c3nc4cc(Cl)ccc4[nH]3)cc2Cl)CC1 [Example 43, 5-Chloro-2-{3-chloro-4-[3-(4-methyl-piperazin-1-yl)-propoxy]-phenyl}-1H-benzoimidazole]"
6,129 nM,"CN1CCN(CCCOc2ccc(-c3nc4ccccc4[nH]3)cc2Cl)CC1 [Example 47, 2-{3-Chloro-4-[3-(4-methyl-piperazin-1-yl)-propoxy]-phenyl}-1H-benzoimidazole]"
7,154 nM,"Cc1cc(-c2nc3ccccc3[nH]2)ccc1OCCCN1CCN(C)CC1 [Example 48, 2-{3-Methyl-4-[3-(4-methyl-piperazin-1-yl)-propoxy]-phenyl}-1H-benzoimidazole]"
8,173 nM,"CN1CCN(CCCOc2ccc(-c3nc4ccccc4[nH]3)c(Cl)c2)CC1 [Example 49, 2-{2-Chloro-4-[3-(4-methyl-piperazin-1-yl)-propoxy]-phenyl}-1H-benzoimidazole]"
9,278 nM,"COc1ccc2[nH]c(-c3ccc(OCCCN4CCN(C)CC4)c(Cl)c3)nc2c1 [Example 51, 2-{3-Chloro-4-[3-(4-methyl-piperazin-1-yl)-propoxy]-phenyl}-5-methoxy-1H-benzoimidazole]"
